The source made the active and inactive calls. No rule for the calls is given here.
What follows are molecules tested against Serine/threonine-protein kinase mTOR (Homo sapiens) (UniProt P42345) (assay: mTOR FRB domain ligand binding – biophysical, NMR (AID 1648)). Details: NMR binding to FRB domain, chemical shift.
Serine/threonine-protein kinase mTOR (Homo sapiens), sequence (P42345 2015-2114): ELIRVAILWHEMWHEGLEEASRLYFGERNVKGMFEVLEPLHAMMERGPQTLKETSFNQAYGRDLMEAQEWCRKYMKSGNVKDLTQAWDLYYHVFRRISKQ
For O=C(Nc1ccc(N2CCCC2=O)cc1)c1cccc(F)c1, the Kd was > 4 mM (inactive). O=c1[nH]cc(NCc2ccccc2)c(=O)[nH]1 was tested, and the Kd was > 4 mM (inactive). With O=C1C2CC=C(Cl)CC2C(=O)N1c1ccccc1O (stereo not given) the Kd was > 4 mM (inactive). With CCOC(=O)CNc1ncnc2c1nnn2CC the Kd was > 4 mM (inactive). With O=C(O)CCC(=O)Nc1ccccc1F the Kd was > 4 mM (inactive). NC1=NC(=O)CC(C(=O)Nc2ccccc2)S1 (stereo not given) was tested, and the Kd was > 4 mM (inactive). With COc1ccc(-c2cc3nc4n(c(=O)c3s2)CCC4)cc1 the Kd was > 4 mM (inactive). In the case of COc1cc(O)c(C)c(O)c1, the Kd is reported as > 4 mM (inactive). For O=C1NC(=O)C(C(=S)Nc2ccccc2)C(=O)N1, the Kd was > 4 mM (inactive). With CC1(C)CC2(CCO1)NCCN1C(=O)CSC12 (stereo not given) the Kd was > 4 mM (inactive). With S=C=NCc1ccccc1 the Kd was > 4 mM (inactive). For COc1ccc(/C=C2\NC(=S)N(C)C2=O)cc1O, the Kd was > 4 mM (inactive). With CCOc1ccc(C(=O)c2ccc(O)c(O)c2O)cc1 the Kd was > 4 mM (inactive). With Cc1cc(C)n2nc(NCc3ccccc3)nc2n1 the Kd was > 4 mM (inactive). COc1ccc(Cc2nnc3c4cnn(C)c4ncn23)cc1 was tested, and the Kd was > 4 mM (inactive). In the case of COc1ccc2cc1Oc1ccc(cc1)C[C@H]1c3c(cc4c(c3Oc3cc5c(cc3OC)CCN(C)[C@@H]5C2)OCO4)CCN1C, the Kd is reported as > 4 mM (inactive). In the case of CCC(=O)Oc1ccc(N2C(=O)CCC2=O)cc1, the Kd is reported as > 4 mM (inactive). O=c1ccc2cc(O)c(O)cc2o1 was tested, and the Kd was > 4 mM (inactive). With COc1cccc(Oc2ccc(N)cc2)c1 the Kd was > 4 mM (inactive). In the case of Oc1ccc(C2SCCS2)cc1, the Kd is reported as > 4 mM (inactive). For CC(=O)OCC[C@H](C)CCC=C(C)C, the Kd was > 4 mM (inactive). For CN(C)N1C(=O)C2CCCCC2C1=O (stereo not given), the Kd was > 4 mM (inactive). For O=C(NC(O)C(=O)c1ccccc1)c1ccco1 (stereo not given), the Kd was > 4 mM (inactive). With COc1ccc2c(c1)CCCN2C(N)=O the Kd was > 4 mM (inactive). NC(=O)Cn1cnc2ccccc21 was tested, and the Kd was > 4 mM (inactive). For O=[n+]1cc(-c2ccccc2)n([O-])c2c1CCC2, the Kd was > 4 mM (inactive). For COc1cc(/C=C/C(=O)/C=C(O)/C=C/c2ccc(O)c(OC)c2)ccc1O, the Kd was > 4 mM (inactive). In the case of Nc1ccc2nsnc2c1, the Kd is reported as > 4 mM (inactive). In the case of Clc1ccc(-c2nnc3ccccn23)cc1, the Kd is reported as > 4 mM (inactive). Cn1nnc2c(Cl)ncnc21 was tested, and the Kd was > 4 mM (inactive). For CC(=O)c1c(O)cc(C)n(Cc2ccccc2)c1=O, the Kd was > 4 mM (inactive). c1ccc(C[N+]23CCN(CC2)c2ccccc23)cc1 was tested, and the Kd was > 4 mM (inactive). In the case of O=c1cc(-c2ccccc2)oc2cc(O)c(O)c(O)c12, the Kd is reported as > 4 mM (inactive). COc1cc(C(C)=O)ccc1OCC(O)Cn1ccnc1 (stereo not given) was tested, and the Kd was > 4 mM (inactive). O=C(Nc1ncccn1)c1cccc(F)c1 was tested, and the Kd was > 4 mM (inactive). For Cc1ccc2nc(NC(=O)CN3CCOCC3)sc2c1, the Kd was > 4 mM (inactive). In the case of CC1(NC(=O)NCc2ccccc2)CCS(=O)(=O)C1 (stereo not given), the Kd is reported as > 4 mM (inactive). In the case of CCC(=O)NC(=S)Nc1ccc(C(N)=O)cc1, the Kd is reported as > 4 mM (inactive). For Cc1nc2ccc(C(=O)O)cc2nc1C, the Kd was > 4 mM (inactive). For O=C(O)CCC(=O)NCc1cccnc1, the Kd was > 4 mM (inactive). With COC(=O)C1Cc2ccccc2N1 (stereo not given) the Kd was > 4 mM (inactive). With CCCc1nc2ccccc2c2nc(N)nn12 the Kd was > 4 mM (inactive). With Cc1ccc(SCc2cc(=O)n3[nH]cnc3n2)cc1 the Kd was > 4 mM (inactive). For OCc1csc(-c2cccs2)n1, the Kd was > 4 mM (inactive). In the case of COCc1cc(=O)oc2cc(O)c(Cl)cc12, the Kd is reported as > 4 mM (inactive). In the case of COCCn1c(N)nc2c1c(=O)[nH]c(=O)n2C, the Kd is reported as > 4 mM (inactive). In the case of O=C(NCc1ccccc1)c1ccc[n+]([O-])c1, the Kd is reported as > 4 mM (inactive). In the case of CC(CCC(=O)O)[C@H]1CCC2C3C(C[C@H](O)[C@@]21C)[C@@]1(C)CC[C@@H](O)C[C@H]1C[C@H]3O (stereo not given in full), the Kd is reported as > 4 mM (inactive). With Cc1noc(C)c1C(=O)N1CCC(Cc2ccccc2)CC1 the Kd was > 4 mM (inactive). In the case of Cc1nnsc1C(=O)Nc1ccccc1[N+](=O)[O-], the Kd is reported as > 4 mM (inactive). CCOC(=O)c1cnc2sccn2c1=O was tested, and the Kd was > 4 mM (inactive). For O=C1CSC(=O)N1CN1CCOCC1, the Kd was > 4 mM (inactive). With CNc1nc(C)nc(-n2nc(C)cc2C)n1 the Kd was > 4 mM (inactive). O=c1[nH]c2sc3c(c2c2nncn12)CCCC3 was tested, and the Kd was > 4 mM (inactive). CCCNC(CC(=O)Nc1cccnc1)C(=O)O (stereo not given) was tested, and the Kd was > 4 mM (inactive). For Fc1ccc(Br)cc1/C=N/n1cnnc1, the Kd was > 4 mM (inactive). For CC(=O)c1c(C)n(O)c2ccc3nonc3c12, the Kd was > 4 mM (inactive). In the case of Nc1cc(C(F)(F)F)ccc1N1CCOCC1, the Kd is reported as > 4 mM (inactive). With CCOCC(=O)N1CCc2ccccc21 the Kd was > 4 mM (inactive). For Cn1cnc2c(=S)[nH]c(=O)n(Cc3ccccc3)c21, the Kd was > 4 mM (inactive). With Cc1cc(=O)n(CCc2ccccc2)c(O)c1C#N the Kd was > 4 mM (inactive). In the case of O=C(c1ccccc1-c1ccccc1)N1CCOCC1, the Kd is reported as > 4 mM (inactive). In the case of CCCn1c(C)cc(=O)[nH]c1=O, the Kd is reported as > 4 mM (inactive). In the case of Cc1cc(NC(=O)CS(=O)(=O)c2ccccc2)no1, the Kd is reported as > 4 mM (inactive). With Cc1ccc(C(=O)Nc2c[nH]c(=O)[nH]c2=O)cc1 the Kd was > 4 mM (inactive). In the case of CC(C)=CC(=O)Nc1ccccc1Br, the Kd is reported as > 4 mM (inactive). For O=C(O)C1CNc2ccccc2O1 (stereo not given), the Kd was > 4 mM (inactive). For COc1c(O)cc2c(-c3ccccc3)cc(=O)oc2c1OC, the Kd was > 4 mM (inactive). For Cc1cc(O)cc(=O)n1CCCC(=O)O, the Kd was > 4 mM (inactive). For O=C(Nc1ccc2c(c1)OCO2)c1cccc(F)c1, the Kd was > 4 mM (inactive). CCOC(=O)c1c(C)[nH]c2ccc(O)cc12 was tested, and the Kd was > 4 mM (inactive). With O=C1CNC(=O)N1Cc1ccc(Br)cc1 the Kd was > 4 mM (inactive). With Cc1nc(SCC#N)c2c3c(sc2n1)CCC3 the Kd was > 4 mM (inactive). For CC1=[N+]([O-])C2(N)CCc3c(no[n+]3[O-])C2(O)C1 (stereo not given), the Kd was > 4 mM (inactive). NS(=O)(=O)c1ccc(NC(=O)c2ccccc2F)cc1 was tested, and the Kd was > 4 mM (inactive). NC(=O)CCn1ncc2ccccc21 was tested, and the Kd was > 4 mM (inactive). O=C(O)CCn1c(=O)oc2ccccc21 was tested, and the Kd was > 4 mM (inactive). For CC1=C(C(N)=O)C(c2ccco2)C(C(N)=O)=C(C)N1, the Kd was > 4 mM (inactive). In the case of O=C(Nc1cnccn1)c1ccncc1, the Kd is reported as > 4 mM (inactive). In the case of CC(=O)OCC(OC(C)=O)C(OC(C)=O)C(OC(C)=O)C(OC(C)=O)C(COC(C)=O)OC(C)=O (stereo not given), the Kd is reported as > 4 mM (inactive). With O=C(O)c1cc(=O)c2cccc(O)c2[nH]1 the Kd was > 4 mM (inactive). With COC(=O)c1cncn1C the Kd was > 4 mM (inactive). For CCOC(=O)c1[nH]cnc1C(=O)OC(C)C, the Kd was > 4 mM (inactive). For O=C1CC(C(=O)O)c2ccccc21 (stereo not given), the Kd was > 4 mM (inactive). For COc1cc2c(cc1OC)C1=C(C#N)CCC(=O)N1CC2, the Kd was > 4 mM (inactive). With O=CN1CCN(C(=O)c2ccccc2F)CC1 the Kd was > 4 mM (inactive). In the case of Nc1cc(=O)[nH]c(=S)n1-c1ccc(F)cc1, the Kd is reported as > 4 mM (inactive). With O=C1C2C3CCC(O3)C2C(=O)N1c1ccccc1 (stereo not given) the Kd was > 4 mM (inactive). For COc1ccc(NC2=NCC(C)S2)cc1 (stereo not given), the Kd was > 4 mM (inactive). For O=c1c2c(nc3nc(Cc4ccccc4)[nH]n13)CCC2, the Kd was > 4 mM (inactive). In the case of CNCc1ccco1, the Kd is reported as > 4 mM (inactive). In the case of COc1ccc2c(c1OC)C(=O)O[C@H]2[C@H]1c2cc3c(cc2CCN1C)OCO3, the Kd is reported as > 4 mM (inactive). Cc1occc1C(=O)NCc1ccccc1F was tested, and the Kd was > 4 mM (inactive). With Cc1c(F)cccc1NS(=O)(=O)c1ccccc1C#N the Kd was > 4 mM (inactive). In the case of Cc1nc(NC2=NCCC(=O)N2)nc2ccccc12, the Kd is reported as > 4 mM (inactive). With CN(C)S(=O)(=O)c1ccccc1C#N the Kd was > 4 mM (inactive). With Cc1cc(C)n2nc(N)nc2n1 the Kd was > 4 mM (inactive). CC(Sc1ncn[nH]1)C(=O)O (stereo not given) was tested, and the Kd was > 4 mM (inactive). With c1ccc(-n2cnnc2)nc1 the Kd was > 4 mM (inactive). O=C1C=CC(=O)N1c1ccccc1O was tested, and the Kd was > 4 mM (inactive). NC(=O)CSc1ccccn1 was tested, and the Kd was > 4 mM (inactive). With CC(=O)c1cc(-c2nc3ccccc3n2C)n(C)c1 the Kd was > 4 mM (inactive). In the case of O=C(O)c1ccc(N2CCOCC2)nc1, the Kd is reported as > 4 mM (inactive). Cn1ccnc1C(O)c1ccccc1 (stereo not given) was tested, and the Kd was > 4 mM (inactive). With O=C1c2cccc3cc(S(=O)(=O)O)cc(c23)C(=O)N1O the Kd was > 4 mM (inactive). CC(=O)Oc1cccc2ccc(=O)[nH]c12 was tested, and the Kd was > 4 mM (inactive). For O=C(O)C1CSC(c2cc3ccccc3nc2Cl)N1 (stereo not given), the Kd was > 4 mM (inactive). With CCCCn1c(=O)cc(O)c2ccccc21 the Kd was > 4 mM (inactive). With CSc1ccccc1NC(=O)c1cnccn1 the Kd was > 4 mM (inactive). OCC1CN(Cc2ccccc2)CCO1 (stereo not given) was tested, and the Kd was > 4 mM (inactive). For Cc1cc2c(N)cccc2nn1, the Kd was > 4 mM (inactive). For O=c1[nH]cnc2c1nnn2Cc1ccccc1, the Kd was > 4 mM (inactive). With Cc1nc2ccccc2c(=O)n1N1C(=O)CCCC1=O the Kd was > 4 mM (inactive). In the case of Cc1cc(C(F)(F)F)n2nc(C(=O)O)c(Cl)c2n1, the Kd is reported as > 4 mM (inactive). For C=CCN1CC[C@]23c4c5ccc(O)c4OC2C(=O)CC[C@@]3(O)[C@H]1C5 (stereo not given in full), the Kd was > 4 mM (inactive). With Cc1c(CO)cnn1-c1ccccc1 the Kd was > 4 mM (inactive). NC(=O)C1CCN(C(=O)c2ccccc2F)CC1 was tested, and the Kd was > 4 mM (inactive). In the case of CC(=O)Nc1ccc(S(=O)(=O)NC2=NCCS2)cc1, the Kd is reported as > 4 mM (inactive). For Cc1[nH]ccc2c1[nH]c1cc(=O)ccc12, the Kd was > 4 mM (inactive). In the case of Cc1cc(C)nc(/N=C(/N)N2CCOCC2)n1, the Kd is reported as > 4 mM (inactive). COC(=O)Nc1c(C)n(C)n(-c2ccccc2)c1=O was tested, and the Kd was > 4 mM (inactive). With CC(C)=CCc1c(O)cc2occ(-c3ccc4c(c3)OCO4)c(=O)c2c1O the Kd was > 4 mM (inactive). For O=C(O)Cn1cnc2ccccc2c1=O, the Kd was > 4 mM (inactive). For CSc1nnc2[nH]c(=O)cc(N)n12, the Kd was > 4 mM (inactive). For OCc1ccc(Oc2ccccc2)nc1, the Kd was > 4 mM (inactive).
